According to BindingDB's records for doi:10.1111/cbdd.12255 (Federal University of Rio De Janeiro, 2014):

What was measured:
[1] = target: T1, Amine oxidase [flavin-containing] B (Homo sapiens, UniProt P27338); test: MAO Assay; conditions: pH 7.4; 37 °C
T1 sequence (P27338 whole entry): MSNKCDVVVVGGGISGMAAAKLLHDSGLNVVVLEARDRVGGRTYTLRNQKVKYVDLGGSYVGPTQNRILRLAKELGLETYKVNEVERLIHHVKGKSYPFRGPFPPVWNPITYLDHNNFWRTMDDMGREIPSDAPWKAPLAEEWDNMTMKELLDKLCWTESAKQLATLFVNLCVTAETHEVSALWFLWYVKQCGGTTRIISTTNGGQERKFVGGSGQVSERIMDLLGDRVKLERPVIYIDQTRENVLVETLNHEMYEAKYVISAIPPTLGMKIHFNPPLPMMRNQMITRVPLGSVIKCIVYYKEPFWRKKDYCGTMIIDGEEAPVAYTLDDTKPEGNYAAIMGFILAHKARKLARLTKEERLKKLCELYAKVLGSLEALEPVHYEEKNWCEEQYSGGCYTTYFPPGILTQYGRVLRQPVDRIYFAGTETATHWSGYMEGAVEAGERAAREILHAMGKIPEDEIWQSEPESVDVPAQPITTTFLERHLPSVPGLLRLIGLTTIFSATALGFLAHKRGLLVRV
Procedure: (§1) The reaction mixture (final volume 200 µL) contained 5 µg/mL MAO-A or MAO-B in a 50 mM sodium phosphate buffer pH 7.4, 1 mM p-tyramine (substrate for MAO-A) or 1 mM benzyl-amine (substrate for MAO-B), 1 U/mL HRP, and 200 µM AR was incubated, in the presence or absence of the inhibitors, at 37 °C for 45 min. The enzyme plus inhibitors were incubated at 37 °C for 20 min followed by the addition of the substrates, HRP and AR. The inhibitors were dissolved in 100% DMSO, and equivalent concentrations of DMSO alone (1-2%) were used as controls. Clorgyline (MAO-A inhibitor) or pargyline (MAO-B inhibitor) at 5 µM concentration was used as positive control for inhibition.

[2] = target: T2, Amine oxidase [flavin-containing] A (Homo sapiens, UniProt P21397); test: MAO Assay; conditions: pH 7.4; 37 °C
T2 sequence (P21397 whole entry): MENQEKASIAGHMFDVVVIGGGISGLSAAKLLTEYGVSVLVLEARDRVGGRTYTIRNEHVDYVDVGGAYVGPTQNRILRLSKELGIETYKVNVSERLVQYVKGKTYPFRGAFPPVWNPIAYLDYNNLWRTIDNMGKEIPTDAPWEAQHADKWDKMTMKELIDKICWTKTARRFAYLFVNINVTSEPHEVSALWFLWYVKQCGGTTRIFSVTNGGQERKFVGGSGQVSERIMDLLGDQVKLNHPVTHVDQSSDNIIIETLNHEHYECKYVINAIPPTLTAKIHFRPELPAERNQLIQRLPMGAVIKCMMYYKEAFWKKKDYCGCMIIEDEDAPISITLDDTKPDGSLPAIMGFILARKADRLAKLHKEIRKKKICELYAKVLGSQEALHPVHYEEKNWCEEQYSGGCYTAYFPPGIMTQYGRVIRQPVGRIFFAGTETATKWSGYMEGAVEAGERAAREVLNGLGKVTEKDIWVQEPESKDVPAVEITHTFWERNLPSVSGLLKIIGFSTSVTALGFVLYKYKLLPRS
Procedure: as §1

| Structure (SMILES) | Ki [1] [µM] | Ki [2] [µM] |
| --- | --- | --- |
| CC(C)=Cc1c(N=CCCCN(CCCN)Cc2ccccc2)c(O)c2ccccc2c1O [2‐({4‐[(3‐aminopropyl)(benzyl)amino]butyl}amino)‐3‐ (2‐methylprop‐1‐en‐1‐yl)naphthalene‐1,4‐dione (Compound c2)] | 58 | 63 |
| CC(C)=CCC1C(=O)C(=O)c2ccccc2C1=O (centres undefined) [4-hydroxy-3-(3-methylbut-2-enyl)naphthalene-1,2-dione] | 59 |  |

The next molecules have a lower Ki [1] than those just listed; values first:

| Ki [1] [µM] | Ki [2] [µM] | Structure (SMILES) |
| --- | --- | --- |
| 18 | 35 | CC(C)C=C1C(=O)C(=O)c2ccccc2C1=O |
| 12 | 28 | NCCCN(CCCC=Nc1cc(O)c2ccccc2c1O)Cc1ccccc1 [2‐({4‐[(3‐ aminopropyl)(benzyl)amino]butyl}amino)naphthalene‐ 1,4‐dione (Compound b2)] |
| 40 | 22 | CC(C)=CCc1c(N=CCCCN(CCCN)Cc2ccccc2)c(O)c2ccccc2c1O [2‐({4‐[(3‐aminopropyl)(benzyl)amino]butyl}amino)‐3‐ (3‐methylbut‐2‐en‐1‐yl)naphthalene‐1,4‐dione (Compound a2)] |
